Test results from ChEMBL document CHEMBL3507680, “University of Dundee, Gates Library screen for HepG2 cell viability”.

Assay: Human HepG2 cell viability assay in 384 well format
Type: toxicity, cell-based
Parameters: dose 125 nL, time 70.5 hour; concentration not given beside the values
Settings: HepG2 cells, read-out: Inhibition

Nc1nccnc1C(=O)N1CCN(Cc2cccc3ccccc23)CC1
cytotoxicity at 70.5 h: 28%

CCn1ccnc1CN1CCOC(Cn2cccn2)C1 (centres undefined)
cytotoxicity at 70.5 h: 22.6%

COc1ccc(CN2CCC3(CC2)CCN(CC(C)C)C3=O)cc1
cytotoxicity at 70.5 h: -10.6%

C=Cn1ncc(CN2C[C@@H]3C[C@@H](O)CN3C[C@@H]2Cc2ccccc2)c1C
cytotoxicity at 70.5 h: 1.04%

Cc1nc2c(c(N3CCCC(CO)C3)n1)CCN(Cc1ccco1)CC2 (centres undefined)
cytotoxicity at 70.5 h: 16.9%

CN(C)S(=O)(=O)c1ccc(OCCNCCn2cccn2)cc1
cytotoxicity at 70.5 h: 33.7%

COc1ccc(OC)c(-c2nc(CN(C)Cc3nncn3C)c(C)o2)c1
cytotoxicity at 70.5 h: -6.73%

O=C(NCc1cncc2c1CCN(Cc1ccoc1)C2)C1CC1
cytotoxicity at 70.5 h: -0.887%

CC1=C[C@@H](CNS(C)(=O)=O)[C@H](C(C)C)C[C@H]1CC(=O)NCCN(C)C
cytotoxicity at 70.5 h: 1.17%

Cc1ccc(C(C)N(C)Cc2nc3c(cnn3C)c(=O)[nH]2)c(C)c1 (centres undefined)
cytotoxicity at 70.5 h: -4.81%

Cn1cc(CN2CCC3(CCCN(C(=O)c4cnccn4)C3)C2)cn1 (centres undefined)
cytotoxicity at 70.5 h: -5.89%

CCSc1ncc(Cl)c(C(=O)NC(CCSC)C(=O)O)n1 (centres undefined)
cytotoxicity at 70.5 h: -7.9%

Cc1csc2c(C3CCCN(C(=O)Cn4cncn4)C3)nc(C)n12 (centres undefined)
cytotoxicity at 70.5 h: -1.76%

COc1ccc(-n2ncc(C(C)NC3Cc4ccccc4C3)c2C)cc1 (centres undefined)
cytotoxicity at 70.5 h: 5.61%

COCC(O)CN(C)C(=O)NCc1ccc(S(C)(=O)=O)cc1 (centres undefined)
cytotoxicity at 70.5 h: -106%

Cc1oc(-c2cccc(F)c2F)nc1CN(CCO)C(C)C
cytotoxicity at 70.5 h: -8.53%

CC(C)(C)NC(=O)CNC(=O)c1cccnc1Oc1cccnc1
cytotoxicity at 70.5 h: -6.52%

OCC1CCCN1c1cc(N2CCc3ccccc3C2)ncn1 (centres undefined)
cytotoxicity at 70.5 h: 31.1%

O=C(c1ccsc1)N1CCC2(CC1)COCCN(Cc1ccncc1)C2
cytotoxicity at 70.5 h: -7.46%

CN1CCC(O)(CNC(=O)c2cc(COc3cccc(F)c3)[nH]n2)CC1
cytotoxicity at 70.5 h: -6.87%

CN1CCN(C2COC3(CCN(Cc4ccsc4)CC3)C2)CC1 (centres undefined)
cytotoxicity at 70.5 h: -8.09%

COC(=O)[C@@H](NC(=O)Nc1ccc(C(C)=O)cc1)C(C)C
cytotoxicity at 70.5 h: 13.3%

COc1ccc(C2CC(=O)Nc3nc(N4CCOCC4)sc32)cc1 (centres undefined)
cytotoxicity at 70.5 h: -6.38%

CC(C)CN1Cc2nc(N3CCC(O)CC3)ncc2C1=O
cytotoxicity at 70.5 h: 12.9%

Cc1ccc(CNC(=O)NC2CCC(O)CC2)c(N2CCCC2)c1 (centres undefined)
cytotoxicity at 70.5 h: -10.5%

N#Cc1ccc(CNc2cccc(C(=O)N3CCOCC3)c2)cc1
cytotoxicity at 70.5 h: -9.56%

CN(Cc1ncc(-c2ccccc2)o1)CC1CCCN1c1cccnn1 (centres undefined)
cytotoxicity at 70.5 h: -10.2%

COCCN1CCN(c2ncnc3nc(C)cc(C)c23)CC1
cytotoxicity at 70.5 h: -7.61%

Cc1ccc(N2N=C(C(=O)O)S(=O)(=O)c3cccnc32)cc1
cytotoxicity at 70.5 h: -8.77%

CCc1cnc(NCC(c2ccncc2)N2CCOCC2)nc1 (centres undefined)
cytotoxicity at 70.5 h: -6.68%

COCC(=O)NCc1cc2n(n1)CCCN(CCCC1CCCC1)C2
cytotoxicity at 70.5 h: -2.24%

COC(=O)c1cccc(C(=O)NCc2ccc3c(c2)CCCN3C)c1
cytotoxicity at 70.5 h: -3.61%

O=C(NCc1ccc(-n2cncn2)nc1)c1ccoc1
cytotoxicity at 70.5 h: 22.2%

CCCNC(=O)CCNC(=O)c1sc2ccc(F)cc2c1C
cytotoxicity at 70.5 h: 31.9%

COc1cccc(OC2CN(C(=O)c3ccnc(OC)c3)C2)c1
cytotoxicity at 70.5 h: -21%

Cc1ccc(C(C(=O)N2CC(c3ccccn3)C2)N(C)C)cc1 (centres undefined)
cytotoxicity at 70.5 h: 13%

CC(C)NC(=O)CS(=O)(=O)c1cc2c(cc1Cl)OCCO2
cytotoxicity at 70.5 h: -3.28%

CCNC(=O)N1CCC2(C1)c1ccccc1S(=O)(=O)N2CCOC (centres undefined)
cytotoxicity at 70.5 h: 5.14%

Cc1cccnc1NC(=O)N(CCO)Cc1ccsc1
cytotoxicity at 70.5 h: -4.42%

CNC(=O)c1ccc(-n2c(COCC(=O)O)nc3c(C)cccc32)o1
cytotoxicity at 70.5 h: -1.45%

COc1ccc(N2CCN(C(=O)CCn3nnnc3C)CC2(C)C)cc1
cytotoxicity at 70.5 h: 14%

COCCN1CCCN(C(=O)NC(C)Cn2cccn2)CC1 (centres undefined)
cytotoxicity at 70.5 h: -14.2%

Cc1cc(CN2CCN(Cc3ccc(C#N)cc3OC(F)F)CC2)no1
cytotoxicity at 70.5 h: 18.7%

COc1c(CNCCNC(=O)c2ccccc2F)c(C)nn1C
cytotoxicity at 70.5 h: -15.6%

COCCCN1CC2(CCCN(c3ncc4nc[nH]c4n3)C2)CCC1=O (centres undefined)
cytotoxicity at 70.5 h: -11.3%

COc1cc(CNCC(O)c2ccc(C)cc2)cc2c1OCO2 (centres undefined)
cytotoxicity at 70.5 h: -2.01%

CC(C)Nc1nc2c(cc1C(=O)NCC1CC1)CCN(CC1CC1)CC2
cytotoxicity at 70.5 h: 25.7%

COc1ccc(-c2csc3c2c(N)nc(=O)n3CCCN(C)C)cc1
cytotoxicity at 70.5 h: -8.54%

O=C1CCCN1CCc1noc(-c2ccc(Cl)cc2)n1
cytotoxicity at 70.5 h: -10.6%

Cc1ccc2[nH]c(C(=O)N3CCCC3Cn3cccn3)cc2c1 (centres undefined)
cytotoxicity at 70.5 h: 4.08%

Cc1ccc(CN2CCC3(CC2)C(=O)N(CCO)CCN3C)o1
cytotoxicity at 70.5 h: -3.64%

O=C(NCCn1ccnc1)N1CCCC1c1cccs1 (centres undefined)
cytotoxicity at 70.5 h: 2.2%

O=C(c1ccc2c(c1)CCC2)N1CCN(c2ccc(Cl)cn2)CC1
cytotoxicity at 70.5 h: 6.01%

Cc1cccc(-c2ccc3nc(C4CCN(CC5CC5)CC4)nn3c2)c1
cytotoxicity at 70.5 h: 0.0128%

Cc1cc(C)n(CCCn2cncc2-c2ccc3c(c2)CC(C)N3C)n1 (centres undefined)
cytotoxicity at 70.5 h: 2%

CNc1ncc2c(n1)CN(C1CCCC1)C2=O
cytotoxicity at 70.5 h: -9.4%

CCn1c(SCC(N)=O)nnc1-c1csc2c1CCCC2
cytotoxicity at 70.5 h: 2.39%

COc1ncccc1-c1cc(C(=O)NC2CC2)ccn1
cytotoxicity at 70.5 h: -8.1%

CNc1ncc2c(n1)CN(CCc1ccc(C)cc1)C2=O
cytotoxicity at 70.5 h: -3.63%

CN1CCNC(Cc2ccc(-c3cccs3)cc2)C1=O (centres undefined)
cytotoxicity at 70.5 h: -6.3%

O=C(C1CC=CC1)N1CC[C@H]2[C@@H]1CCC(=O)N2c1ccccc1
cytotoxicity at 70.5 h: -3.86%

Cc1ccnc(NC(=O)c2c(C)oc(C)c2C)c1
cytotoxicity at 70.5 h: 9.9%

CC(=O)N1CC(C(=O)Nc2cccc(OC(F)F)c2)C1
cytotoxicity at 70.5 h: -3.71%

CC(C)N(C)Cc1cnc2n1CCN(S(=O)(=O)c1ccccc1)C2
cytotoxicity at 70.5 h: 15.9%

CSCCC(=O)N1C[C@@H](C)[C@](O)(C(C)C)C1
cytotoxicity at 70.5 h: -9.47%

Cc1nc(CCN)cc(N(C)Cc2nc3ccc(F)cc3[nH]2)n1
cytotoxicity at 70.5 h: 0.172%

O=C(Nc1nc2c(s1)CN(S(=O)(=O)C1CC1)CC2)c1ccsc1
cytotoxicity at 70.5 h: -12.1%

Cc1c(C(=O)NCCCC(N)=O)sc2ccc(F)cc12
cytotoxicity at 70.5 h: 25.3%

Nc1ccc(-c2cnc(C3CCCN3)cn2)cn1 (centres undefined)
cytotoxicity at 70.5 h: -8.2%

O=C(N1CCOCC1)[C@@]12CCO[C@@H]1CCN(Cc1ccncc1)C2
cytotoxicity at 70.5 h: -3.44%

COc1ccc(CC(=O)N2CCN(Cc3ccco3)C[C@@H]2C)cc1OC
cytotoxicity at 70.5 h: -3.94%

CC(C)Cc1nc(CO)n(-c2ccc3c(c2)OCCO3)n1
cytotoxicity at 70.5 h: 1.83%

CC(C)c1ccc(CN2CCC3(CCCN(c4nncs4)C3)C2)cc1 (centres undefined)
cytotoxicity at 70.5 h: -4.12%

Cc1cc(C)cc(Nc2nc(C)cc(=O)n2CC(=O)NC(C)C)c1
cytotoxicity at 70.5 h: -5.12%

c1cc(CN2C[C@@H]3COC[C@]3(COCC3CC3)C2)ccn1
cytotoxicity at 70.5 h: 11.6%

CC(=O)N1CCC(Oc2cccc(C#N)c2)CC1
cytotoxicity at 70.5 h: 13.4%

O=C(c1cn(CC(=O)N2CCCCCC2)c2ccccc12)C1CC1
cytotoxicity at 70.5 h: -7.67%

c1cc(-c2ccc3c(c2)C2(CC3)CCN(c3nncs3)CC2)ccn1
cytotoxicity at 70.5 h: 1.28%

COCCN1CCN(Cc2csc(-c3cnn(C)c3)n2)CC1
cytotoxicity at 70.5 h: -7.26%

Cn1cc(C(O)CNC(=O)c2cc(Br)ccc2Cl)cn1 (centres undefined)
cytotoxicity at 70.5 h: -14.2%

Cc1nc(CO[C@@H]2CN(Cc3nccs3)[C@@H]3COC[C@@H]32)cs1
cytotoxicity at 70.5 h: -6.11%

Cc1cc(C)n(-c2cncc(NCCNC(=O)CC3CCCC3)n2)n1
cytotoxicity at 70.5 h: -4.52%

O=C([C@@H]1CCCO1)N1CCOCC2(CCN(Cc3cccnc3)C2)C1 (some centres undefined)
cytotoxicity at 70.5 h: 0.333%

N#CCCN(CC1CC1)S(=O)(=O)c1cccc(Cl)c1
cytotoxicity at 70.5 h: -3.31%

Cn1cc(CN2CCCC(CCc3c(F)cccc3F)C2)cn1 (centres undefined)
cytotoxicity at 70.5 h: 1.58%

CCN1CCCC1CNC(=O)Cc1c(-c2ccc(Cl)cc2)n[nH]c1C (centres undefined)
cytotoxicity at 70.5 h: 21.2%

N#Cc1cccnc1NC1CCN(c2ccccc2OC(F)F)C1=O (centres undefined)
cytotoxicity at 70.5 h: 17.8%

COc1ccc(N2CCC(NC(=O)c3sccc3C)CC2)cc1
cytotoxicity at 70.5 h: 18.3%

CC(=O)N1CCN(C(C)c2ccc(Br)cc2)CC1 (centres undefined)
cytotoxicity at 70.5 h: -0.505%

CC(=O)N1CCCN(C(=O)NCCCn2cncn2)CC1
cytotoxicity at 70.5 h: -0.358%

CNC(=O)N1CCCCC1c1nnc2n1CCCC2 (centres undefined)
cytotoxicity at 70.5 h: -0.585%

CC(=O)CCC(=O)N1CCC2(CC1)N=C(CCC(C)C)NC2=O
cytotoxicity at 70.5 h: -0.28%

CC(C)Nc1nc(N2CCCC2)nc2c1CCN(S(C)(=O)=O)CC2
cytotoxicity at 70.5 h: -10.7%

CCOCc1cnc2n1CCN(C(=O)C1=CCCC1)C2C (centres undefined)
cytotoxicity at 70.5 h: -2.23%

CCOCCN1CCN(CC(=O)N2CCCC2)CC1C (centres undefined)
cytotoxicity at 70.5 h: -7.94%

COc1ccc([C@@H](C)n2ccnc2-c2cc3n(n2)CCCNC3)cc1
cytotoxicity at 70.5 h: 18.8%

NC(=O)C1CN(C(=O)Nc2ccccc2SC2CCCC2)CCO1 (centres undefined)
cytotoxicity at 70.5 h: -3.34%

COc1ccc(COCC(O)CNC(=O)c2ccc(C)c(F)c2)cc1 (centres undefined)
cytotoxicity at 70.5 h: -1.89%

CNC(=O)c1cccnc1NCCOc1ccccc1
cytotoxicity at 70.5 h: -0.952%

CCOc1ccc(C#N)cc1NCC(=O)NC(=O)Nc1ccccc1
cytotoxicity at 70.5 h: -8.89%

Cc1noc(C)c1CN1CCc2nn(C(C)C)c(=O)cc2C1
cytotoxicity at 70.5 h: 38.6%

O=C1CC[C@]2(CC[C@@H](NCc3cccnc3)CC2)N1Cc1ccccc1
cytotoxicity at 70.5 h: -11.6%

COc1ccc2nnc(C(=O)NC3CCCC3)nc2c1
cytotoxicity at 70.5 h: -4.15%

Cc1nsc(N2CCN(C(=O)Nc3cccc(C#N)c3)CC2)n1
cytotoxicity at 70.5 h: -0.0722%

Fc1ccc(CN2CCO[C@H]3[C@H](OCCN4CCCC4)CC[C@@H]32)cc1
cytotoxicity at 70.5 h: -5.14%

CN1CCN(C(=O)Cc2csc(-c3ccsc3)n2)C(c2ccccc2)C1 (centres undefined)
cytotoxicity at 70.5 h: -3.75%

O=C(NCCc1nnc2n1CCCCC2)N1CCC2(CCCC2)CC1
cytotoxicity at 70.5 h: -7.24%

COc1ccnc(N2CCN(C(C)c3nc(C)no3)CC2)n1 (centres undefined)
cytotoxicity at 70.5 h: 4.57%

CC(C)c1cc(N2CCC[C@H](N)C2)n2nccc2n1
cytotoxicity at 70.5 h: -4.66%

Cc1cccnc1CN1CCN(C[C@]2(O)CCCN3CCCC[C@@H]32)CC1
cytotoxicity at 70.5 h: -6.65%

NC(=O)NC(=O)C(c1ccccc1)N1CCN(Cc2ccccc2)CC1 (centres undefined)
cytotoxicity at 70.5 h: 1.22%

CC1CN(Cc2ccccc2)CCCN1CCS(C)(=O)=O (centres undefined)
cytotoxicity at 70.5 h: -2.05%

COCc1noc(C2(c3ccc(F)cc3)CC2)n1
cytotoxicity at 70.5 h: 12.6%

Cc1nccnc1N1CCC(Cc2ccccc2Cl)(C(=O)O)CC1
cytotoxicity at 70.5 h: -11.4%
